Measurements published in patent US6984500B2, “Method for detecting microorganisms and detection kit” (priority 2001, dated 2006).
Converted amounts (≈) assume the structure as drawn.

Legend:
[1] = tested on: A. fumigatus ATCC 26430; assay: Colorimetric microplate drug susceptibility test (WST-8 coloring reagent, sucrose YN broth, NaOH sensitizing solution); type: cell-based, Aspergillus Fumigatus; conditions: for Drug concentration at or above which almost no color was exhibited visually: visual reading
Method: (§1) Aspergillus Fumigatus ATCC26430 was used.
The drug solutions so prepared were pipetted into a plate at 0.02 mL/well and dried to a solid under reduced pressure for 24 hours. A coloring reagent (containing 0.7 mmol/L WST-8, 0.0035 mmol/L 1-methoxy PMS, 0.5 mmol/L potassium ferricyanide, and 0.5 mmol/L of potassium ferrocyanide) was pipetted into each of the wells at 0.02 mL/well and they were again dried to a solid under reduced pressure for 24 hours.
6.7 g of YN Base (manufactured by Difco) and 20 g of sucrose were dissolved in about 900 mL of purified water, and the pH was adjusted to 7.0 with a 1N aqueous solution of sodium hydroxide. The solution was made up to 1000 mL with purified water and then filter sterilized using a 0.2 μm filter.
A tester strain was cultured using Sabouraud Dextrose Agar (manufactured by OXOID) at 35° C. for 7 days. 2 mL of sterile physiological saline containing 0.1% Tween 80 was added dropwise onto the culture medium so as to float spores. The above-mentioned physiological saline that had been added dropwise onto the culture medium was recovered and allowed to stand for 3 to 5 minutes, and after removing the precipitate it was mixed using a Vortex mixer to give a spore suspension. Dilution was carried out so that the absorbance at 530 nm was 0.09 to 0.11. 0.1 mL of the spore suspension so prepared was taken using a micro pipette, added to 20 mL of sucrose YN broth, and stirred using a Vortex mixer to give an inoculum. 0.2 mL of the inoculum was pipetted into each of the wells of the microplate for the test described in B, the plate was covered, and culturing was carried out at 35° C.±1° C. for 24 hours. As a blank, sucrose YN broth was added instead of the inoculum.
After 24 hours 0.02 mL of a 1.5 mol/L aqueous solution of sodium hydroxide was added to each well, and 5 minutes after the addition the absorbance at 630 nm was measured.
2. For ITCZ, the 80% inhibitory concentration (IC80) was determined.

[2] = tested on: A. fumigatus ATCC 26430; conditions: reference values of NCCLS M38-P; cited from earlier work
[3] = tested on: A. fumigatus ATCC 26430; assay: NCCLS M-38P turbidity method (0.2 mL micro broth dilution) antifungal susceptibility test; type: cell-based; conditions: Aspergillus fumigatus, ATCC26430, repeated tests, determination time 46 to 50 hours
Method: as §1
A comparative example was carried out according to NCCLS M-38P (0.2 mL culture system micro broth dilution method).

| Compound | Drug concentration at or above which almost no color was exhibited visually ([1]; 24 hours culture) | Allowable range (MIC reference values described in NCCLS M38-P) [2] | MIC [3] | Drug concentration at or below which absorbance at 630 nm increased (FIG. 2) ([1]; 24 hours culture, absorbance at 630 nm) | MIC ([1]; Aspergillus fumigatus, ATCC26430, 24 h) |
| --- | --- | --- | --- | --- | --- |
| C[C@@H]1[C@H](O)[C@@H](C)/C=C/C=C/C=C/C=C/C=C/C=C/C=C/[C@H](O[C@@H]2O[C@H](C)[C@@H](O)[C@H](N)[C@@H]2O)C[C@@H]2O[C@](O)(C[C@@H](O)C[C@@H](O)[C@H](O)CC[C@@H](O)C[C@@H](O)CC(=O)O[C@H]1C)C[C@H](O)[C@H]2C(=O)O [AMPH, Amphotericin B] | ≥ 0.5 µg/mL | 0.5 to 2.0 µg/mL | – | – | – |
| CCC(C)n1ncn(-c2ccc(N3CCN(c4ccc(OCC5COC(Cn6cncn6)(c6ccc(Cl)cc6Cl)O5)cc4)CC3)cc2)c1=O (stereo not drawn) [ITCZ, Itraconazole] | ≥ 0.12 µg/mL | – | 0.12 to 0.25 µg/mL (≈ 0.17 to 0.354 µM) | ≤ 0.06 µg/mL | 0.12 to 0.25 µg/mL |
